Here are results for 5 compounds from patent US4471116A, “Substituted (10H-phenothiazin-10-L)-propyl-1-piperazines” (Hoffmann-La Roche Inc., priority 1982, dated 1984).

For data set [1], the system named is avoidance behavior. The experiment in a line: Discrete Avoidance - Rats (avoidance block / escape block). In kind it is in vivo, rat. From the text: For example, by one procedure, trained rats are placed in experimental chambers equipped with a response lever, a steel grid floor for delivery of electric shock and a loudspeaker for presentation of auditory stimuli. […] The rats can terminate a trial at any point by depression of the response lever. A response during the initial fifteen-second warning tone ends the trial before shock delivery and is considered an avoidance response, while a response occurring during shock delivery is an escape response. Trials are presented every two minutes during a one-hour test session (30 trials per session). […] Compounds are administered to a minimum of three to four rats at each dose level over a range of doses. Rats receive vehicle alone, during control sessions prior to drug administration. Each rat is tested daily or weekly, after a single drug administration, until avoidance behavior returns to pre-drug baseline levels. The session is divided into three consecutive twenty minute (ten trial) segments. Response counts are summed over all subjects at a given dose within each segment. […] This number is expressed as a percentage of the total trials within the segment. […] The lowest dose which produced a 20% block of escape responding (EBD 20) is read from a graphic dose-effect plot. In obtaining these values, percent effect is plotted against the log dose.

Data set [2] is described as follows: Acute toxicity (LD50) in mice after a single dose. The conditions noted are these: mouse, in vivo; for LD50 at 168 h: 7 days.
Data set [3] relates to revertant colonies. The experiment in a line: Ames procedure (mutagenicity).
Data set [4] relates to Continuous Avoidance. The data set can be described thus: Continuous Avoidance (Squirrel Monkeys). The conditions noted are these: Primates; Squirrel Monkey, PO, 1 Hour Post-Drug; read-out: Continuous Avoidance MED Shocks. In kind it is in vivo, squirrel monkey.
The test system of data set [5] is Apomorphine Induced Emesis. The experiment in a line: Apomorphine Induced Emesis antagonism (Dogs). Format: in vivo, dog. To be noted: Canis lupus familiaris; Dog, SC, 1 Hour Post-Drug; read-out: Anti-Apomorphine Emesis ED50.
In data set [6] the test system is Amphetamine Induced Rotation. The data set can be described thus: Amphetamine Induced Rotation antagonism (S. Nigra Lesioned Rats) / Rotation Antagonism. Format: in vivo, rat. The conditions noted are these: Rat, PO, 1 Hour Post-Drug.
Data set [7] concerns Confinement Motor Activity. The data set can be described thus: Confinement Motor Activity. In kind it is in vivo. To be noted: Rat, PO, 1 Hour Post-Drug; read-out: Confinement Motor Activity DD50.
Data set [8] relates to Dopamine Turnover-Brain Caudate. The experiment in a line: Dopamine Turnover-Brain, Caudate. Format: in vivo. To be noted: Rat, 1 Hour Post-Drug.
For data set [9], the system named is Dopamine Turnover-Brain Limbic and Remainder. The experiment in a line: Dopamine Turnover-Brain, Limbic and Remainder. The conditions noted are these: Rat, 1 Hour Post-Drug. Format: in vivo.
The test system of data set [10] is Prolactin Secretion. The experiment in a line: Prolactin Secretion (in-vitro). In kind it is cell-based. The conditions noted are these: Rat, read-out: Prolactin Secretion ID50.
[11] abbreviates: Rattus norvegicus, 1 h, 40 mg/kg po, 60 min. post-drug, read-out: Percentage Block of Avoidance, 60 min. post-drug.
The mark [12] stands for this setting: Rattus norvegicus, 40 mg/kg po, 24 hrs. post-drug, read-out: Percentage Block of Avoidance, 24 hrs. post-drug.
[13] abbreviates: Rattus norvegicus, 40 mg/kg po, at the indicated duration, read-out: Avoidance block at Duration of Sig. Activity (AB).
[14] abbreviates: Rattus norvegicus, 40 mg/kg po, at time of peak effect, read-out: Avoidance block at Time of Peak Effect (AB).

The structures appear in SMILES notation. Structures can show the parent of a compound that is named as a salt. Where two headings read alike, the source gives them in different places. Bounds are passed on as bounds.

The LD50 is the dose expected to kill half of the subjects tested. Read a low LD50 as greater toxicity. On to `CC(C)Nc1ccc(OCCN2CCN(CCCN3c4ccccc4Sc4ccc(Cl)cc43)CC2)cc1.O=C(O)/C=C\C(=O)O` [Compound B, N-[4-[2-[4-[3-(2-chloro-10H-phenothiazin-10-yl)propyl]-1-piperazinyl]ethoxy]phenyl]-α-methylethaneamine (Z)-2-butenedioate], for which, in [1] (30 mg/kg po), the “Duration of Sig. Activity” value is 3 days. Further, the “Time of Peak Effect” value in data set [1] (30 mg/kg po) came out at 0.0417 days. In addition, the inhibition in vivo at 30 mg/kg in data set [1] (Rattus norvegicus, 1 h, 30 mg/kg po, 60 min. post-drug, read-out: Percentage Block of Avoidance, 60 min. post-drug) amounted to 100%; in [1] (Rattus norvegicus, 30 mg/kg po, 24 hrs. post-drug, read-out: Percentage Block of Avoidance, 24 hrs. post-drug), 70%; in data set [1] (Rattus norvegicus, 30 mg/kg po, at the indicated duration, read-out: Avoidance block at Duration of Sig. Activity (AB)) it was 43%; in data set [1] (Rattus norvegicus, 30 mg/kg po, at time of peak effect, read-out: Avoidance block at Time of Peak Effect (AB)), 100%. Also, the ED50 in [1] (Rattus norvegicus, po, 1 h, p.o., 60 minutes pretreatment, day of administration, read-out: ABD50) worked out at 8.7 mg/kg. The “duration of neuroleptic effect (in words)” value in data set [1] (discrete avoidance procedure) is recorded as “several days”. Besides, the “time of maximum neuroleptic activity (in words)” value in data set [1] (p.o.) is on record as “on the day of administration”. Moreover, the figures for the LD50 at 168 h in [2] (ip) and in data set [2] (po) were 230 mg/kg and 248 mg/kg, respectively. This compound yielded an LD50 at 24 h in data set [2] (po, 24 hours) greater than 1000 mg/kg. Further, the “mutogenic effects (conclusion)” value in data set [3] is on record as “free of mutogenic effects”. Besides, in data set [3], the “revertant colonies (Ames)” value is recorded as “no increase in revertant colonies”.
For the compound `CC(C)NCCCOc1ccc(OCCN2CCN(CCCN3c4ccccc4Sc4ccc(Cl)cc43)CC2)cc1` [1-[3-(2-chloro-10H-phenothiazin-10-yl)propyl]-4-2-[4-[3-(1-methylethyl)aminopropoxy]phenoxy]ethyl]piperazine trihydrochloride], the “Duration of Sig. Activity” value in [1] (40 mg/kg po) is reported as 5 weeks. Moreover, the “Time of Peak Effect” value in [1] (40 mg/kg po) came out at 1 days. For the same compound, the inhibition in vivo at 40 mg/kg amounted to 10% in [1] (setting [11]), 97% in [1] (setting [12]), 50% in data set [1] (setting [13]) and 97% in data set [1] (setting [14]).
As to `CC(C)NCCCc1ccc(OCCN2CCN(CCCN3c4ccccc4Sc4ccc(Cl)cc43)CC2)cc1.Cl.Cl.Cl` [1-[3-(2-chloro-10H-phenothiazin-10-yl)propyl]-4-[2-[4-[3-(1-methylethyl)aminopropyl]phenoxy]ethyl]piperazine trihydrochloride], the “Duration of Sig. Activity” value in data set [1] (40 mg/kg po) worked out at 5 weeks. Further, the “Time of Peak Effect” value in data set [1] (40 mg/kg po) is 1 days. In addition, the inhibition in vivo at 40 mg/kg in [1] (setting [11]) was 45%; in data set [1] (setting [12]) it was 100%; in data set [1] (setting [13]), 55%; in [1] (setting [14]), 100%.
As for `O=C(CCCN1CCC(O)(c2ccc(Cl)cc2)CC1)c1ccc(F)cc1` [Haloperidol, haloperidol, reference compound], the ED50 came to 0.35 mg/kg in data set [1] (Rat, PO, 1 Hour Post-Drug, read-out: Discrete Avoidance ABD50); 0.02 mg/kg in [5]; 0.35 mg/kg in data set [6]; 0.4 mg/kg in [7]. Moreover, the minimal effective dose in data set [4] worked out at 0.28 mg/kg. In addition, the “Dopamine Turnover-Brain, Caudate” value in [8] (1 mg/kg IP) is listed as “Signif. .uparw”. Besides, the “Dopamine Turnover-Brain, Limbic and Remainder” value in data set [9] (1 mg/kg IP) was “Signif. .uparw”.
For the compound `CN(C)CCCN1c2ccccc2Sc2ccc(Cl)cc21` [Chlorpromazine, chlorpromazine, reference compound], the ED50 worked out at 5 mg/kg in data set [1] (Rattus norvegicus, po, 1 h, read-out: Discrete Avoidance ABD50); 1.4 mg/kg in [5]; 20.5 mg/kg in [6]; 4.6 mg/kg in data set [7]. Besides, the minimal effective dose in [4] came to 2 mg/kg. Also, the “Dopamine Turnover-Brain, Caudate” value in data set [8] (10 mg/kg IP) is reported as “Signif. .uparw”. The “Dopamine Turnover-Brain, Limbic and Remainder” value in data set [9] (10 mg/kg IP) is listed as “Signif. .uparw”. For the same compound, the IC50 in data set [10] is 130 nM.
